Assay results as given in the supplement of paper PMC10307832.

Assays:
Assay in all cases: relative viability (nuclei count vs DMSO), 5 days (fraction); higher = more cells survive
BAM7 + Dasatinib = compound: CCOC1=CC=CC=C1N=NC2=C(NN(C2=O)C3=NC(=CS3)C4=CC=CC=C4)C [BAM7] + Cc1nc(Nc2ncc(C(=O)Nc3c(C)cccc3Cl)s2)cc(N2CCN(CCO)CC2)n1 [Dasatinib] (partner 0.075 µM)
How it was run: (§1)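 A single step with final 0.05% Triton X-100, 1% formaldehyde and 1 ug/ml Hoechst fixed the cells and stained nuclei 5 days after treatment. Lung cancer cell lines in 1536-well plates had been treated by pin tool the day after seeding with one drug alone or a fixed anchor-drug dose plus five library-drug doses (not always all listed) in √10 steps, and nuclei were counted on 4× images. Relative viability is the ratio of nuclei in treated wells to nuclei in vehicle wells, taken as the median of duplicate plates.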

BAM7 + Palbociclib = compound: CCOC1=CC=CC=C1N=NC2=C(NN(C2=O)C3=NC(=CS3)C4=CC=CC=C4)C [BAM7] + CC(=O)c1c(C)c2cnc(Nc3ccc(N4CCNCC4)cn3)nc2n(C2CCCC2)c1=O [Palbociclib] (partner 0.5 µM)
How it was run: as §1

BAM7 + Decitabine = compound: CCOC1=CC=CC=C1N=NC2=C(NN(C2=O)C3=NC(=CS3)C4=CC=CC=C4)C [BAM7] + Nc1ncn([C@H]2C[C@H](O)[C@@H](CO)O2)c(=O)n1 [Decitabine] (partner 2 µM)
How it was run: as §1

[1] = compound: CCn1c(-c2nonc2N)nc2c(C#CC(C)(C)O)ncc(OC[C@H]3CCCNC3)c21 + Cc1nc(NC(=O)N2CCC[C@H]2C(N)=O)sc1-c1ccnc(C(C)(C)C(F)(F)F)c1 [Alpelisib] (partner 2 µM)
How it was run: as §1

UMC-11
relative viability (BAM7 + Dasatinib; first compound 0.5 µM): 0.511
relative viability (BAM7 + Dasatinib; first compound 5 µM): 0.509
relative viability (BAM7 + Dasatinib; first compound 15.81 µM): 0.449
relative viability (BAM7 + Dasatinib; first compound 50 µM): 0.479
relative viability (BAM7 + Palbociclib; first compound 0.5 µM): 0.32
relative viability (BAM7 + Palbociclib; first compound 5 µM): 0.341
relative viability (BAM7 + Palbociclib; first compound 15.81 µM): 0.342
relative viability (BAM7 + Palbociclib; first compound 50 µM): 0.336
relative viability (BAM7 + Decitabine; first compound 0.5 µM): 0.603
relative viability (BAM7 + Decitabine; first compound 5 µM): 0.687
relative viability (BAM7 + Decitabine; first compound 15.81 µM): 0.618
relative viability (BAM7 + Decitabine; first compound 50 µM): 0.635
relative viability ([1]; first compound 0.01 µM): 1.04
relative viability ([1]; first compound 0.03162 µM): 0.974
relative viability ([1]; first compound 0.1 µM): 0.969
relative viability ([1]; first compound 0.3162 µM): 0.96
relative viability ([1]; first compound 1 µM): 0.976
